# Laboratory results taken from article PMC4246094, “Exchange Factor EFA6R Requires C-terminal Targeting to the Plasma Membrane to Promote Cytoskeletal Rearrangement through the Activation of ADP-ribosylation Factor 6 (ARF6)” (The Journal of Biological Chemistry, 2014).
# Biological target: T1, EFA6R (GFP-EFA6R), isoform B (Homo sapiens, UniProt Q9NYI0)
# T1 construct: gene PSD3; full-length isoform B, N-terminal GFP tag (pEGFPC2), transiently expressed in COS7 cells, lysate used; endogenous protein runs at 56 kDa
# Assay: competition pulldown: displacement from biotinylated PI-avidin beads by soluble diC8 lipid, immunoblot densitometry
# Settings: concentration blocking 50% of binding to PI 4,5-P2 beads (in the methods PI 3,4-P2 beads); cell lysate, pH 7.4, 150 mM NaCl, 0.5% Nonidet P-40, 4 °C; PH domain; read-out: EC50 (the source's name)
# T1 sequence (Q9NYI0 1-513 isoform Q9NYI0-3 limits assumed): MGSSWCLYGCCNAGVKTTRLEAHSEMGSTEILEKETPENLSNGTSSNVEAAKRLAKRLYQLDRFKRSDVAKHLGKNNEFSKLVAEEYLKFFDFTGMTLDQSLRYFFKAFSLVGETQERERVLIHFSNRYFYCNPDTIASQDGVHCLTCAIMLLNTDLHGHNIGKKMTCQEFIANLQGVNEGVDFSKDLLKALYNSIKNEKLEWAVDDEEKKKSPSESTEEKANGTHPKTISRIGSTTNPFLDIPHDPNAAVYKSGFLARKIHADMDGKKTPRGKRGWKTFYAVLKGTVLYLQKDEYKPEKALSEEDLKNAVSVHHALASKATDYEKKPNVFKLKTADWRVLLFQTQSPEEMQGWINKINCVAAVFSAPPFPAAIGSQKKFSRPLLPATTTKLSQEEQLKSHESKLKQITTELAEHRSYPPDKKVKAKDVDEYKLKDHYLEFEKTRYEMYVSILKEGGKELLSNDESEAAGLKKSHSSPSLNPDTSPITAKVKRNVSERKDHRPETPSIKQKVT
row,SMILES,IC50 [µM]
1,"CCCCCCCC(=O)OC[C@H](COP(=O)(O)O[C@H]1[C@H](O)[C@@H](OP(=O)(O)O)[C@H](OP(=O)(O)O)[C@@H](OP(=O)(O)O)[C@H]1O)OC(=O)CCCCCCC [PI 3,4,5-trisphosphate]",> 10
2,"CCCCCCCC(=O)OC[C@H](COP(=O)(O)O[C@H]1[C@H](O)[C@@H](O)[C@H](OP(=O)(O)O)[C@@H](OP(=O)(O)O)[C@H]1O)OC(=O)CCCCCCC [PI 3,4-P2]",> 10
3,CCCCCCCC(=O)OC[C@H](COP(=O)(O)O[C@@H]1[C@H](O)[C@H](OP(=O)(O)O)[C@@H](O)[C@H](O)[C@H]1O)OC(=O)CCCCCCC [PI 3-phosphate],> 10
4,"CCCCCCCC(=O)OC[C@H](COP(=O)(O)O[C@@H]1[C@H](O)[C@H](O)[C@@H](OP(=O)(O)O)[C@H](OP(=O)(O)O)[C@H]1O)OC(=O)CCCCCCC [PI 4,5-P2]",1.1
